Key:
barley [1] = test: Test B preemergence/postemergence greenhouse plant response rating 0 to 10; type: in vivo, Hordeum vulgare; settings: for Plant response rating, Barley: 0 to 10 scale
Method in brief: (§1)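 Test chemicals were sprayed onto freshly planted seed and, concurrently, onto young plants between the one and four leaf stage. After a twelve- to sixteen-day greenhouse period, each species was visually compared with untreated controls.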

bedstraw = test: as above; type: in vivo, Galium aparine; settings: for Plant response rating, Bedstraw: 0 to 10 scale
Method in brief: as §1

chickweed [2] = test: as above; type: in vivo, Stellaria media; settings: for Plant response rating, Chickweed: 0 to 10 scale
Method in brief: as §1

cocklebur = test: as above; type: in vivo, Xanthium pensylvanicum; settings: for Plant response rating, Cocklebur: 0 to 10 scale
Method in brief: as §1

morningglory = test: as above; type: in vivo, Ipomoea hederacea; settings: for Plant response rating, Morningglory: 0 to 10 scale
Method in brief: as §1

sorghum = test: as above; type: in vivo, Sorghum bicolor; settings: for Plant response rating, Sorghum: 0 to 10 scale
Method in brief: as §1

soybean [3] = test: as above; type: in vivo, Glycine max; settings: for Plant response rating, Soybean: 0 to 10 scale
Method in brief: as §1

sugar beet = test: as above; type: in vivo, Beta vulgaris; settings: for Plant response rating, Sugar beet: 0 to 10 scale
Method in brief: as §1

velvetleaf = test: as above; type: in vivo, Abutilon theophrasti; settings: for Plant response rating, Velvetleaf: 0 to 10 scale
Method in brief: as §1

wild buckwheat = test: as above; type: in vivo, Polygonum convolvulus; settings: for Plant response rating, Wild buckwheat: 0 to 10 scale
Method in brief: as §1

barley [4] = test: Test C preemergence/postemergence greenhouse plant response rating 0 to 100; type: in vivo, Hordeum vulgare; settings: for Plant response rating Barley Igri: 125 g/ha, 0 to 100 scale
Method in brief: (§2)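 Compounds in non-phytotoxic solvent applied preemergence to sandy loam one day after planting, postemergence at the 1–4 leaf stage, or to ~2.5 cm floodwater over silt loam.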

blackgrass = test: as above; type: in vivo, Alopecurus myosuroides; settings: for Plant response rating, Blackgrass: 125 g/ha, 0 to 100 scale
Method in brief: as §2

chickweed [5] = test: as above; type: in vivo, Stellaria media; settings: for Plant response rating, Chickweed: 125 g/ha, 0 to 100 scale
Method in brief: as §2

pigweed = test: as above; type: in vivo, Amaranthusretroflexus; settings: for Plant response rating Pigweed: 125 g/ha, 0 to 100 scale
Method in brief: as §2

rape = test: as above; type: in vivo, Brassica napus; settings: for Plant response rating, Rape: 125 g/ha, 0 to 100 scale
Method in brief: as §2

ryegrass = test: as above; type: in vivo, Lolium multiflorum; settings: for Plant response rating Ryegrass: 125 g/ha, 0 to 100 scale
Method in brief: as §2

soybean [6] = test: as above; type: in vivo, Glycine max; settings: for Plant response rating, Soybean: 125 g/ha, 0 to 100 scale
Method in brief: as §2

umbrella sedge = test: Test C flood test plant response rating 0 to 100; type: in vivo, Cyperus difformis
Method in brief: as §2

CCOCOc1cc(-c2nn3c(c2Cl)CCCC3)c(F)cc1Cl [Compound 59]
Plant response rating, Barley (barley [1]; POSTEMERGENCE, Rate 50 g/ha): 4 | Plant response rating, Barley (barley [1]; PREEMERGENCE, Rate 50 g/ha): 2 | Plant response rating (0 to 10 scale), Barley (barley [1]; PREEMERGENCE, Rate 200 g/ha): 5 | Plant response rating, Barley (barley [1]; Rate 200 g/ha, POSTEMERGENCE): 4 | Plant response rating, Bedstraw (bedstraw; POSTEMERGENCE, Rate 50 g/ha): 10 | Plant response rating, Bedstraw (bedstraw; PREEMERGENCE, Rate 50 g/ha): 8 | Plant response rating (0 to 10 scale), Bedstraw (bedstraw; PREEMERGENCE, Rate 200 g/ha): 10 | Plant response rating, Bedstraw (bedstraw; Rate 200 g/ha, POSTEMERGENCE): 8 | Plant response rating, Chickweed (chickweed [2]; POSTEMERGENCE, Rate 50 g/ha): 6 | Plant response rating, Chickweed (chickweed [2]; PREEMERGENCE, Rate 50 g/ha): 4 | Plant response rating (0 to 10 scale), Chickweed (chickweed [2]; PREEMERGENCE, Rate 200 g/ha): 9 | Plant response rating, Chickweed (chickweed [2]; Rate 200 g/ha, POSTEMERGENCE): 8 | Plant response rating, Cocklebur (cocklebur; POSTEMERGENCE, Rate 50 g/ha): 7 | Plant response rating, Cocklebur (cocklebur; PREEMERGENCE, Rate 50 g/ha): 0 | Plant response rating (0 to 10 scale), Cocklebur (cocklebur; PREEMERGENCE, Rate 200 g/ha): 8 | Plant response rating, Cocklebur (cocklebur; Rate 200 g/ha, POSTEMERGENCE): 10 | Plant response rating, Morningglory (morningglory; POSTEMERGENCE, Rate 50 g/ha): 8 | Plant response rating, Morningglory (morningglory; PREEMERGENCE, Rate 50 g/ha): 2 | Plant response rating (0 to 10 scale), Morningglory (morningglory; PREEMERGENCE, Rate 200 g/ha): 6 | Plant response rating, Morningglory (morningglory; Rate 200 g/ha, POSTEMERGENCE): 10 | Plant response rating, Sorghum (sorghum; POSTEMERGENCE, Rate 50 g/ha): 3 | Plant response rating, Sorghum (sorghum; PREEMERGENCE, Rate 50 g/ha): 1 | Plant response rating (0 to 10 scale), Sorghum (sorghum; PREEMERGENCE, Rate 200 g/ha): 5 | Plant response rating, Sorghum (sorghum; Rate 200 g/ha, POSTEMERGENCE): 4 | Plant response rating, Soybean (soybean [3]; POSTEMERGENCE, Rate 50 g/ha): 8 | Plant response rating, Soybean (soybean [3]; PREEMERGENCE, Rate 50 g/ha): 0 | Plant response rating (0 to 10 scale), Soybean (soybean [3]; PREEMERGENCE, Rate 200 g/ha): 4 | Plant response rating, Soybean (soybean [3]; Rate 200 g/ha, POSTEMERGENCE): 7 | Plant response rating, Sugar beet (sugar beet; POSTEMERGENCE, Rate 50 g/ha): 10 | Plant response rating, Sugar beet (sugar beet; PREEMERGENCE, Rate 50 g/ha): 9 | Plant response rating (0 to 10 scale), Sugar beet (sugar beet; PREEMERGENCE, Rate 200 g/ha): 10 | Plant response rating, Sugar beet (sugar beet; Rate 200 g/ha, POSTEMERGENCE): 10 | Plant response rating, Velvetleaf (velvetleaf; POSTEMERGENCE, Rate 50 g/ha): 8 | Plant response rating, Velvetleaf (velvetleaf; PREEMERGENCE, Rate 50 g/ha): 10 | Plant response rating (0 to 10 scale), Velvetleaf (velvetleaf; PREEMERGENCE, Rate 200 g/ha): 10 | Plant response rating, Velvetleaf (velvetleaf; Rate 200 g/ha, POSTEMERGENCE): 10 | Plant response rating, Wild buckwheat (wild buckwheat; POSTEMERGENCE, Rate 50 g/ha): 10 | Plant response rating, Wild buckwheat (wild buckwheat; PREEMERGENCE, Rate 50 g/ha): 10 | Plant response rating (0 to 10 scale), Wild buckwheat (wild buckwheat; PREEMERGENCE, Rate 200 g/ha): 10 | Plant response rating, Wild buckwheat (wild buckwheat; Rate 200 g/ha, POSTEMERGENCE): 10 | Plant response rating Barley Igri (barley [4]; POSTEMERGENCE): 60 | Plant response rating (0 to 100), Barley Igri (barley [4]; POSTEMERGENCE, Rate 2 g/ha): 30 | Plant response rating Barley Igri (barley [4]; PREEMERGENCE): 10 | Plant response rating (0 to 100), Barley Igri (barley [4]; PREEMERGENCE, Rate 2 g/ha): 0 | Plant response rating (0 to 100), Barley Igri (barley [4]; Rate 8 g/ha, POSTEMERGENCE): 40 | Plant response rating (0 to 100), Barley Igri (barley [4]; Rate 8 g/ha, PREEMERGENCE): 0 | Plant response rating (0 to 100), Barley Igri (barley [4]; Rate 31 g/ha, POSTEMERGENCE): 50 | Plant response rating (0 to 100), Barley Igri (barley [4]; Rate 31 g/ha, PREEMERGENCE): 0 | Plant response rating, Blackgrass (blackgrass; POSTEMERGENCE): 70 | Plant response rating (0 to 100), Blackgrass (blackgrass; POSTEMERGENCE, Rate 2 g/ha): 20 | Plant response rating, Blackgrass (blackgrass; PREEMERGENCE): 90 | Plant response rating (0 to 100), Blackgrass (blackgrass; PREEMERGENCE, Rate 2 g/ha): 0 | Plant response rating (0 to 100), Blackgrass (blackgrass; Rate 8 g/ha, POSTEMERGENCE): 30 | Plant response rating (0 to 100), Blackgrass (blackgrass; Rate 8 g/ha, PREEMERGENCE): 20 | Plant response rating (0 to 100), Blackgrass (blackgrass; Rate 31 g/ha, POSTEMERGENCE): 50 | Plant response rating (0 to 100), Blackgrass (blackgrass; Rate 31 g/ha, PREEMERGENCE): 50 | Plant response rating, Chickweed (chickweed [5]; POSTEMERGENCE): 90 | Plant response rating (0 to 100), Chickweed (chickweed [5]; POSTEMERGENCE, Rate 2 g/ha): 20 | Plant response rating, Chickweed (chickweed [5]; PREEMERGENCE): 30 | Plant response rating (0 to 100), Chickweed (chickweed [5]; PREEMERGENCE, Rate 2 g/ha): 0 | Plant response rating (0 to 100), Chickweed (chickweed [5]; Rate 8 g/ha, POSTEMERGENCE): 40 | Plant response rating (0 to 100), Chickweed (chickweed [5]; Rate 8 g/ha, PREEMERGENCE): 0 | Plant response rating (0 to 100), Chickweed (chickweed [5]; Rate 31 g/ha, POSTEMERGENCE): 70 | Plant response rating (0 to 100), Chickweed (chickweed [5]; Rate 31 g/ha, PREEMERGENCE): 10 | Plant response rating Pigweed (pigweed; POSTEMERGENCE): 100 | Plant response rating (0 to 100), Pigweed (pigweed; POSTEMERGENCE, Rate 2 g/ha): 30 | Plant response rating Pigweed (pigweed; PREEMERGENCE): 100 | Plant response rating (0 to 100), Pigweed (pigweed; PREEMERGENCE, Rate 2 g/ha): 0 | Plant response rating (0 to 100), Pigweed (pigweed; Rate 8 g/ha, POSTEMERGENCE): 30 | Plant response rating (0 to 100), Pigweed (pigweed; Rate 8 g/ha, PREEMERGENCE): 100 | Plant response rating (0 to 100), Pigweed (pigweed; Rate 31 g/ha, POSTEMERGENCE): 100 | Plant response rating (0 to 100), Pigweed (pigweed; Rate 31 g/ha, PREEMERGENCE): 100 | Plant response rating, Rape (rape; POSTEMERGENCE): 100 | Plant response rating (0 to 100), Rape (rape; POSTEMERGENCE, Rate 2 g/ha): 20 | Plant response rating, Rape (rape; PREEMERGENCE): 40 | Plant response rating (0 to 100), Rape (rape; PREEMERGENCE, Rate 2 g/ha): 0 | Plant response rating (0 to 100), Rape (rape; Rate 8 g/ha, POSTEMERGENCE): 40 | Plant response rating (0 to 100), Rape (rape; Rate 8 g/ha, PREEMERGENCE): 0 | Plant response rating (0 to 100), Rape (rape; Rate 31 g/ha, POSTEMERGENCE): 70 | Plant response rating (0 to 100), Rape (rape; Rate 31 g/ha, PREEMERGENCE): 0 | Plant response rating Ryegrass (ryegrass; POSTEMERGENCE): 80 | Plant response rating (0 to 100), Ryegrass (ryegrass; POSTEMERGENCE, Rate 2 g/ha): 10 | Plant response rating Ryegrass (ryegrass; PREEMERGENCE): 90 | Plant response rating (0 to 100), Ryegrass (ryegrass; PREEMERGENCE, Rate 2 g/ha): 0 | Plant response rating (0 to 100), Ryegrass (ryegrass; Rate 8 g/ha, POSTEMERGENCE): 20 | Plant response rating (0 to 100), Ryegrass (ryegrass; Rate 8 g/ha, PREEMERGENCE): 20 | Plant response rating (0 to 100), Ryegrass (ryegrass; Rate 31 g/ha, POSTEMERGENCE): 40 | Plant response rating (0 to 100), Ryegrass (ryegrass; Rate 31 g/ha, PREEMERGENCE): 50 | Plant response rating, Soybean (soybean [6]; POSTEMERGENCE): 70 | Plant response rating (0 to 100), Soybean (soybean [6]; POSTEMERGENCE, Rate 2 g/ha): 30 | Plant response rating, Soybean (soybean [6]; PREEMERGENCE): 0 | Plant response rating (0 to 100), Soybean (soybean [6]; PREEMERGENCE, Rate 2 g/ha): 0 | Plant response rating (0 to 100), Soybean (soybean [6]; Rate 8 g/ha, POSTEMERGENCE): 50 | Plant response rating (0 to 100), Soybean (soybean [6]; Rate 8 g/ha, PREEMERGENCE): 0 | Plant response rating (0 to 100), Soybean (soybean [6]; Rate 31 g/ha, POSTEMERGENCE): 60 | Plant response rating (0 to 100), Soybean (soybean [6]; Rate 31 g/ha, PREEMERGENCE): 0 | Plant response rating (0 to 100), Umbrella sedge (umbrella sedge; POSTEMERGENCE section, flood test, Rate 2 g/ha): 90 | Plant response rating (0 to 100), Umbrella sedge (umbrella sedge; Rate 8 g/ha, under POSTEMERGENCE head (flood test species)): 0 | Plant response rating (0 to 100), Umbrella sedge (umbrella sedge; Rate 31 g/ha, under POSTEMERGENCE head (flood test species)): 0 | Plant response rating Umbrella sedge (umbrella sedge; flood test species listed under POSTEMERGENCE, 125 g/ha, 0 to 100 scale): 0

Source: patent publication US6358885B1, “Substituted phenylheterocyclic herbicides” (Mississippi State University, priority 1992, dated 2002)
